ChEMBL document CHEMBL1201862, “PubChem BioAssay data set” (2004)
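Grown in 96-well plates, cells were treated for 48 hours with each compound at five concentrations. Insufficient inhibition: endpoint recorded as highest concentration tested. GI50: concentration for 50% inhibition of growth.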 Calls of active or inactive are those of the source. Cut-off read from the data, not from the text of the source: active = GI50 up to about 1.1 µM and inactive = higher.

What was measured:
Assay in all cases: DTP human tumour cell line panel, 48 h
SNB-78 = system: SNB-78
DMS-273 = system: DMS-273
DLD-1 = system: DLD-1
HOP-18 = system: HOP-18
M19-MEL = system: M19-MEL
DMS-114 = system: DMS-114
KM-20L2 = system: KM-20L2
XF498 = system: XF498
RXF 631 = system: RXF 631

Measured: GI50

O=C1C=C(NCCc2ccccc2)c2ccccc2C1=O
active: M19-MEL 0.276 µM
inactive: SNB-78 16.6 µM | DMS-273 2.77 µM | DLD-1 6.03 µM | HOP-18 1.63 µM | DMS-114 1.92 µM | KM-20L2 6.95 µM

COc1cc(-c2cccs2)sc1-c1cccs1
inactive: SNB-78 36.2 µM | DMS-273 12.5 µM | DLD-1 8.17 µM | HOP-18 1.58 µM | M19-MEL 32.8 µM | DMS-114 30 µM | KM-20L2 26.7 µM

C=C1CC2CC(O)CC(C1)C2 (stereo unspecified)
inactive: SNB-78 > 100 µM | DMS-273 > 100 µM | DLD-1 > 100 µM | XF498 > 100 µM | HOP-18 > 100 µM | M19-MEL > 100 µM | DMS-114 > 100 µM | KM-20L2 > 100 µM

S=c1sc2c(Cl)nc(Cl)nc2n1-c1ccccc1
inactive: SNB-78 13.3 µM | DMS-273 45.9 µM | DLD-1 16.2 µM | XF498 94.2 µM | HOP-18 > 100 µM | M19-MEL 16.4 µM | DMS-114 14.2 µM | KM-20L2 52.6 µM

CC1(CO)OC1COCc1ccccc1 (stereo unspecified)
inactive: SNB-78 > 100 µM | DMS-273 > 100 µM | DLD-1 > 100 µM | XF498 > 100 µM | DMS-114 > 100 µM | RXF 631 > 100 µM | KM-20L2 > 100 µM

Cc1cccc2c1C(=O)OC2(C)c1cccc2ccccc12 (stereo unspecified)
inactive: SNB-78 73.6 µM | DLD-1 30.5 µM | XF498 4.86 µM | HOP-18 > 100 µM | M19-MEL 50 µM | DMS-114 43.1 µM | KM-20L2 24.4 µM

Nc1ncc(CN2CCCC2)c(-c2ccccc2O)n1
inactive: DMS-273 > 750 µM | DLD-1 > 750 µM | XF498 > 750 µM | HOP-18 433 µM | M19-MEL > 750 µM | DMS-114 > 750 µM | KM-20L2 > 750 µM

CC(=O)NNc1nc(C)c(C(=O)NNC(=O)C(=O)Nc2ccc(C)cc2[N+](=O)[O-])s1
inactive: SNB-78 > 100 µM | DMS-273 > 100 µM | DLD-1 > 100 µM | HOP-18 > 100 µM | M19-MEL 60.4 µM | DMS-114 > 100 µM | RXF 631 > 100 µM | KM-20L2 > 100 µM

COc1ccc(/C=C2\C(=O)N(C(=O)c3ccc(NC(C)=O)cc3)N=C2C)cc1OC
inactive: SNB-78 > 100 µM | DMS-273 > 100 µM | DLD-1 > 100 µM | XF498 > 100 µM | HOP-18 14.6 µM | M19-MEL > 100 µM | DMS-114 > 100 µM

CC(C)c1ccccc1NC(=O)/C(Cl)=C1/Sc2ccccc2NC1=O
inactive: SNB-78 30.5 µM | DLD-1 35.5 µM | M19-MEL 34 µM | DMS-114 18.5 µM | RXF 631 34 µM | KM-20L2 24.2 µM

CCCCC(C(=O)CCC(=O)Nc1ccc(Cl)c(Cl)c1)C(=O)C(C)C (stereo unspecified)
inactive: SNB-78 > 100 µM | DMS-273 52.4 µM | DLD-1 > 100 µM | HOP-18 > 100 µM | M19-MEL > 100 µM | DMS-114 > 100 µM | KM-20L2 > 100 µM

C=CCc1cc(-c2cc(CC=C)c(O)c(CN(CC)CC)c2)cc(CN(CC)CC)c1O
inactive: SNB-78 > 100 µM | DMS-273 32.2 µM | DLD-1 70.1 µM | HOP-18 > 100 µM | M19-MEL 18.3 µM | DMS-114 > 52.6 µM | RXF 631 14.6 µM | KM-20L2 14.5 µM

Nc1nc(N)c2ncn(CCCC(c3ccccc3)P(=O)(O)O)c2n1 (stereo unspecified)
inactive: SNB-78 > 100 µM | DMS-273 > 100 µM | DLD-1 > 100 µM | HOP-18 > 100 µM | M19-MEL > 100 µM | DMS-114 > 100 µM | KM-20L2 > 100 µM

CC(C)C12C=CC(C)(CC1)n1c(=O)c3cc4ccccc4cc3c(=O)n12 (stereo unspecified)
inactive: SNB-78 > 100 µM | DMS-273 40.6 µM | DLD-1 38.7 µM | XF498 26.4 µM | M19-MEL 66.8 µM | DMS-114 41.9 µM | RXF 631 54.3 µM | KM-20L2 31.7 µM

Cc1c2cc[n+](C)c(C)c2cc2c1[nH]c1ccccc12
active: HOP-18 0.586 µM
inactive: SNB-78 5.05 µM | DMS-273 3.63 µM | DLD-1 10.5 µM | M19-MEL 3.44 µM | DMS-114 1.57 µM | KM-20L2 4.99 µM

CCCCCCCCCCCCCCCC(=O)OCC1OC(n2cc(F)c(=O)[nH]c2=O)C(NC(=O)N(CCCl)N=O)C(O)C1O (stereo unspecified)
active: DMS-273 0.343 µM
inactive: SNB-78 3.85 µM | DLD-1 2.84 µM | HOP-18 16.4 µM | M19-MEL 2.82 µM | DMS-114 1.12 µM | RXF 631 3.08 µM | KM-20L2 5.15 µM

CC(=O)O[C@H]1C(=O)[C@@]2(C)[C@H]([C@H](OC(=O)c3ccccc3)[C@]3(O)C[C@H](OC(=O)[C@H](O)[C@@H](NC(=O)c4ccccc4)c4ccccc4)C(C)=C1C3(C)C)[C@]1(OC(C)=O)CO[C@@H]1C[C@@H]2O [PACLITAXEL]
active: SNB-78 0.00982 µM | DMS-273 0.00313 µM | DLD-1 0.0448 µM | XF498 0.00348 µM | HOP-18 0.157 µM

O=C(NC12CC3CC(CC(C3)C1)C2)C(=O)c1c[nH]c2ccc([N+](=O)[O-])cc12
inactive: DMS-273 5.66 µM | XF498 18.2 µM | HOP-18 28.6 µM | M19-MEL 60 µM | DMS-114 43.9 µM | KM-20L2 36.5 µM

CCOC(=O)C1(Cc2ccccc2)CCCCCN1 (stereo unspecified)
inactive: SNB-78 > 100 µM | DMS-273 > 100 µM | DLD-1 > 100 µM | HOP-18 > 100 µM | M19-MEL > 100 µM | DMS-114 > 100 µM | RXF 631 > 100 µM | KM-20L2 > 100 µM

O=[N+]([O-])c1nccn1COCCBr
inactive: DLD-1 > 100 µM | XF498 > 100 µM | M19-MEL > 100 µM | DMS-114 > 100 µM | KM-20L2 > 100 µM

Oc1cc(-c2ccc[nH]2)nc2cc3c(cc12)OCO3
inactive: DMS-273 32.2 µM | DLD-1 34.4 µM | XF498 21.1 µM | M19-MEL 39 µM | RXF 631 47.5 µM

C/C(=N\NC(=O)C[n+]1ccccc1)c1sc(-c2nc(C)c(/C(C)=N/NC(=O)C[n+]3ccccc3)s2)nc1C
inactive: SNB-78 > 100 µM | DLD-1 > 100 µM | M19-MEL > 100 µM | DMS-114 38.3 µM | KM-20L2 > 100 µM

Cc1cnc(NCCCN(C)C)c2c1[nH]c1ccc3cc(O)ccc3c12
active: SNB-78 0.929 µM | DMS-273 0.462 µM | DLD-1 0.49 µM | XF498 0.222 µM | M19-MEL 0.383 µM | DMS-114 0.0962 µM | KM-20L2 0.266 µM
inactive: HOP-18 1.43 µM

CCOC(=O)C1=C(C)N(NC(N)=O)C2(N)N(NC(N)=O)C(C)=C(C(=O)OCC)C12C(=O)OCC (stereo unspecified)
inactive: DMS-273 > 100 µM | DLD-1 > 100 µM | XF498 > 100 µM | M19-MEL > 100 µM | DMS-114 > 100 µM | KM-20L2 > 100 µM

O=C(Nc1nnn[nH]1)c1nc(O)cc(-c2ccccc2)n1
inactive: SNB-78 > 100 µM | DLD-1 > 100 µM | XF498 > 100 µM | M19-MEL > 100 µM | DMS-114 > 100 µM | KM-20L2 > 100 µM
